From article PMC10931833, “Simultaneous Purification of Human Interferon Alpha-2b and Serum Albumin Using Bioprivileged Fluorinated Ionic Liquid-Based Aqueous Biphasic Systems” (International Journal of Molecular Sciences, 2024)

Columns and labels:
[1] = ref 44 (IFN-α2b), 91 (BSA), 96 (Lys); cited from earlier work
IFN-α2b [2] = target: T1, IFN-α2b (Homo sapiens, UniProt P01563); test: Far-UV CD secondary structure of IFN-α2b (CONTIN-LL deconvolution); format: physicochemical
T1 construct: single non-glycosylated polypeptide chain with a molecular weight of 19 kDa, comprising 165 amino acids; purchased Millipore Sigma-Aldrich SRP4595-100UG; host or cells: E. coli
Excerpt: Circular dichroism (CD) is widely used to study the secondary structures of proteins, peptides and nucleic acids, because it requires a low concentration sample, is a nondestructive method, allows studying a wide range of variables (temperature, pH, etc.), and provides information on the effect of added ligands on protein folding and interactions.
Circular dichroism (CD) spectra were collected in a 10 mm quartz cuvette and a Chirascan spectropolarimeter (Applied Photophysics, UK) at room temperature. All CD spectra were recorded in the far-UV range of 190 to 260 nm at scan rates of 50 nm/min, with 4 accumulations, and a response time of 3 s; CD spectra were collected. For each CD experiment, two distinct duplicates were acquired and combined. […] Spectral deconvolution was carried out with DichroWeb using the CONTIN-LL deconvolution algorithm with the SMP180 reference set.

IFN-α2b [3] = target: T1, IFN-α2b; test: CD thermal unfolding (Tm) of IFN-α2b; format: physicochemical
Procedure: The same analyses attained for 208 nm and 192 nm are illustrated in Figures S5 and S6 in the Supplementary Materials. The corresponding T m values are estimated by fitting to a sigmoid with four parameters (one-way ANOVA, significance level of 0.05) and summarized in Table S2 in the Supplementary Materials. The CD T m of 0.125 mg/mL native IFN- α 2b is in good agreement with what was previously reported. […] The estimated T m values are summarized in Table S2 in the Supplementary Materials. The same analysis is attained for 208 nm and 192 nm, as depicted in Figures S5 and S6 in the Supplementary Materials. All the CD T m results are summarized in Table S2 in the Supplementary Materials. The thermal stability assessed by far-UV CD is solely determined through the thermal decay of the alpha-helical structure.
The same analysis was attained for 208 nm and 192 nm as illustrated in Figure S13 in the Supplementary Materials. The corresponding T m values are depicted in Table 5, and were estimated by fitting a sigmoid with four parameters (one-way ANOVA, with a significance level of 0.05).

BSA [4] = target: T2, BSA (Bos taurus, UniProt P02769); test: CD thermal unfolding (Tm) of BSA; format: physicochemical, bovine; details: 1.0 mg/ml BSA, 200 mM component aqueous solution
T2 construct: purchased Millipore Sigma-Aldrich
Excerpt: The thermal stability assessed by far-UV CD is solely determined through the thermal decay of the alpha-helical structure.

BSA [5] = target: T2, BSA; test: DSC thermal unfolding of BSA in water and aqueous solutions of ABS phase-forming components; format: physicochemical, bovine; details: for Tm / ΔG / ΔHcal / ΔHcal/ΔHvH / ΔHvH / ΔS: 1.0 mg/mL BSA
Procedure: Differential scanning calorimetry (DSC) measurements were performed with Nano DSC equipment, as detailed in Section 3, and used to determine the melting temperature (T m ) and enthalpy ( Δ H) of protein unfolding. DSC analyzes changes in the structure and stability of proteins as thermal transitions at the nanoscale. Using DSC to measure heat capacity as a function of the temperature of a well-studied protein such as BSA provides keen insights into folding and unfolding processes, as well as factors affecting stability. Due to the volume and concentration requirements of the DSC technique, and the constraints in available quantities of IFN- α 2b the DSC experiments on the ABS phase-forming components’ effect on the structural properties of proteins were attained only for BSA.
The T m of BSA, which corresponds to the thermal unfolding transition midpoint, was measured in the absence and presence of the ABS phase-forming components at increasing concentrations (see Figure 1 and Table 2).

FITC-BSA = target: T3, FITC-BSA (Bos taurus, UniProt P02769); test: MST binding to FITC-BSA; parameters: species or system bovine; details: 0.41 μM BSA
T3 construct: purchased Millipore Sigma-Aldrich
Procedure: Herein, a commercial FITC labeling kit (Section 3) was used to fluorescently tag both IFN- α 2b and BSA. Typically, in the labeling process, one amine per protein is labeled, statistically distributing the position of the dye. […] The MST assay was performed as detailed in Section 3. The solutions were prepared with a concentration of IFN- α 2b and BSA fixed at 0.41 μ M in water. For IFN- α 2b a concentration of 2.7 μ M was also prepared to compare it with previous results on MST-binding between FILs and IFN- α 2b fluorescently labeled with a different tag. In each run of MST, a maximum concentration of a ligand is selected and consecutively diluted in sixteen capillaries. […] The experimental conditions of the MST assay only allow the study of the aggregation phenomenon individually for the first CAC.
Microscale thermophoresis (MST) measurements of the dye-labeled protein were used to conduct binding investigations. […] MST tests were conducted in a monolith NT.115 (blue/red) in accordance with the NanoTemper Technologies methodology. Medium MST power and 20% LED power (nano-blue) were set as the instrument’s default settings. For every MST measurement, a PBS buffer was used. The concentration of FITC-BSA was fixed at 0.4 μ M and FITC-IFN- α 2b was tested under two different concentrations (of 0.4 and 2.7 μ M). The ligand was used to create a set of 16 1:1 dilutions, with the starting ligand concentrations ranging from 10 to 400 mM. The typical parameters for MST traces were used for recording: […], 30 s MST power on, and 5 s MST power off. The data from three independently conducted pipetted experiments were examined using NanoTemper Technologies’ MO.Affinity Analysis software, version 2.3.

BSA [6] = target: T2, BSA; test: Far-UV CD secondary structure of BSA (CONTIN-LL deconvolution); format: physicochemical, bovine; details: 1.0 mg/mL BSA, 25 °C
Excerpt: Circular dichroism (CD) is widely used to study the secondary structures of proteins, peptides and nucleic acids, because it requires a low concentration sample, is a nondestructive method, allows studying a wide range of variables (temperature, pH, etc.), and provides information on the effect of added ligands on protein folding and interactions. Far-UV (190–260 nm) CD spectroscopy was used to assess the IFN- α 2b and BSA secondary structure since the spectra are characteristic of different structural elements.
Circular dichroism (CD) spectra were collected in a 10 mm quartz cuvette and a Chirascan spectropolarimeter (Applied Photophysics, UK) at room temperature. All CD spectra were recorded in the far-UV range of 190 to 260 nm at scan rates of 50 nm/min, with 4 accumulations, and a response time of 3 s; CD spectra were collected. For each CD experiment, two distinct duplicates were acquired and combined. BSA was fixed at 1 mg/mL, solvent concentrations ranging from 0.1 to 200 mM were used, and the spectra were translated to MRE after being expressed in terms of molar ellipticity. Spectral deconvolution was carried out with DichroWeb using the CONTIN-LL deconvolution algorithm with the SMP180 reference set.

[7] = 0.125 mg/mL IFN-α2b in water, 25 °C
[8] = 0.099-0.12 mg/mL IFN-α2b in [N1112(OH)][C4F9SO3]-rich phase of BP#8

T2 sequence (P02769 25-607): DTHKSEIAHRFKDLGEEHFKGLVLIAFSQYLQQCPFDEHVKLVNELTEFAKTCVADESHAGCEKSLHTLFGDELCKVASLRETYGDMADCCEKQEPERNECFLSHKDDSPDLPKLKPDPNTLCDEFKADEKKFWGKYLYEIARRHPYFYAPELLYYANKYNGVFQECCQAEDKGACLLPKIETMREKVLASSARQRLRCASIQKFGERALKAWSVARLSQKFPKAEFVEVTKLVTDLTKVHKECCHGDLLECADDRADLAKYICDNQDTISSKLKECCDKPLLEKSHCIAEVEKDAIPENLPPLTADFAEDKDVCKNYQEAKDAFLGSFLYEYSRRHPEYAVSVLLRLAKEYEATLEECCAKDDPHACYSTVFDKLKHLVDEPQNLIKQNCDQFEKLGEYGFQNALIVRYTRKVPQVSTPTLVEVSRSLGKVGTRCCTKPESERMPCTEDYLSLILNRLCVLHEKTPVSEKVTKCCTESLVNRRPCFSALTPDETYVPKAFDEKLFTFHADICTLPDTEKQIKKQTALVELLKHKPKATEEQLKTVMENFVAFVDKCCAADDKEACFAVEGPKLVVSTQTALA
T1 sequence (P01563 24-188): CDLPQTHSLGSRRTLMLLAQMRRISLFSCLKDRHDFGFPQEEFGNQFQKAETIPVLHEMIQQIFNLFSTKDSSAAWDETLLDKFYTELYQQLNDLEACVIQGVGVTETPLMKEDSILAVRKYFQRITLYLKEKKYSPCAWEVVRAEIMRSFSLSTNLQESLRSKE
T3 sequence (P02769 25-607): as the sequence (P02769 25-607) above

lysozyme
iso-electric point [1]: approximately 11.0

Human interferon-alpha 2b [IFN-α2b]
iso-electric point [1]: around 5.9 | Distorted Alpha Helix (IFN-α2b [2]; [7]): 0.145 | Distorted Beta Sheet (IFN-α2b [2]; [7]): 0.071 | Regular Alpha Helix (IFN-α2b [2]; [7]): 0.289 | Regular Beta Sheet (IFN-α2b [2]; [7]): 0.049 | Turns (IFN-α2b [2]; [7]): 0.209 | Unordered (IFN-α2b [2]; [7]): 0.238 | predicted α-helical content (IFN-α2b [2]; IFN-α2b in water, CD deconvolution): 0.44 | Tm, Ellipticity 192 nm (IFN-α2b [3]; 0.125 mg/mL IFN-α2b in water): 63.311 °C | Tm, Ellipticity 208 nm (IFN-α2b [3]; 0.125 mg/mL IFN-α2b in water): 66.156 °C | Tm, Ellipticity 222 nm (IFN-α2b [3]; 0.125 mg/mL IFN-α2b in water): 67.548 °C | Tm, Ellipticity 192 nm (IFN-α2b [3]; [8]): 42.274 °C | Tm, Ellipticity 208 nm (IFN-α2b [3]; [8]): 71.217 °C | Tm, Ellipticity 222 nm (IFN-α2b [3]; [8]): 62.080 °C

C[N+](C)(C)CCO.C[N+](C)(C)CCO.O=P([O-])(O)O.O=P([O-])(O)O [[N1112(OH)][H2PO4], Choline ((2-hydroxyethyl)trimethylammonium) dihydrogen phosphate]
Tm, Ellipticity 192 nm (BSA [4]): 65.691 °C | Tm, Ellipticity 208 nm (BSA [4]): 76.945 °C | Tm, Ellipticity 222 nm (BSA [4]): 66.702 °C | Tm (BSA [5]; 0.1 mM component): 75.36 °C | ΔG (BSA [5]; 0.1 mM component): 15.2 kcal/mol | ΔHcal (BSA [5]; 0.1 mM component): 105.9 kcal/mol | ΔHcal/ΔHvH (BSA [5]; 0.1 mM component): 0.949 | ΔHvH (BSA [5]; 0.1 mM component): 111.6 kcal/mol | ΔS (BSA [5]; 0.1 mM component): 1.272 KJ/(mol.K) | Tm (BSA [5]; 1 mM component): 81.59 °C | ΔG (BSA [5]; 1 mM component): 18.02 kcal/mol | ΔHcal (BSA [5]; 1 mM component): 112.4 kcal/mol | ΔHcal/ΔHvH (BSA [5]; 1 mM component): 0.613 | ΔHvH (BSA [5]; 1 mM component): 183.3 kcal/mol | ΔS (BSA [5]; 1 mM component): 1.325 KJ/(mol.K) | Tm (BSA [5]; 5 mM component): 80.80 °C | ΔG (BSA [5]; 5 mM component): 25.72 kcal/mol | ΔHcal (BSA [5]; 5 mM component): 162.2 kcal/mol | ΔHcal/ΔHvH (BSA [5]; 5 mM component): 1.081 | ΔHvH (BSA [5]; 5 mM component): 150 kcal/mol | ΔS (BSA [5]; 5 mM component): 1.915 KJ/(mol.K) | Tm (BSA [5]; 10 mM component): 73.90 °C | ΔG (BSA [5]; 10 mM component): 17.42 kcal/mol | ΔHcal (BSA [5]; 10 mM component): 122.8 kcal/mol | ΔHcal/ΔHvH (BSA [5]; 10 mM component): 0.998 | ΔHvH (BSA [5]; 10 mM component): 123 kcal/mol | ΔS (BSA [5]; 10 mM component): 1.479 KJ/(mol.K) | effect on BSA Tm (DSC) (BSA [5]; tested concentration range vs water): maintained | Kd (FITC-BSA; max. conc. first capillary 12.5 mM (monomer)): no binding detected | Kd (FITC-BSA; max. conc. first capillary 400 mM (monomer)): no binding detected | Distorted Alpha Helix (BSA [6]; 0.1 mM component): 0.204 | Distorted Beta Sheet (BSA [6]; 0.1 mM component): 0.031 | Regular Alpha Helix (BSA [6]; 0.1 mM component): 0.397 | Regular Beta Sheet (BSA [6]; 0.1 mM component): 0.000 | Turns (BSA [6]; 0.1 mM component): 0.147 | Unordered (BSA [6]; 0.1 mM component): 0.221 | Distorted Alpha Helix (BSA [6]; 1 mM component): 0.210 | Distorted Beta Sheet (BSA [6]; 1 mM component): 0.023 | Regular Alpha Helix (BSA [6]; 1 mM component): 0.393 | Regular Beta Sheet (BSA [6]; 1 mM component): 0.000 | Turns (BSA [6]; 1 mM component): 0.132 | Unordered (BSA [6]; 1 mM component): 0.242 | Distorted Alpha Helix (BSA [6]; 5 mM component): 0.203 | Distorted Beta Sheet (BSA [6]; 5 mM component): 0.023 | Regular Alpha Helix (BSA [6]; 5 mM component): 0.377 | Regular Beta Sheet (BSA [6]; 5 mM component): 0.004 | Turns (BSA [6]; 5 mM component): 0.128 | Unordered (BSA [6]; 5 mM component): 0.265 | Distorted Alpha Helix (BSA [6]; 25 mM component): 0.195 | Distorted Beta Sheet (BSA [6]; 25 mM component): 0.029 | Regular Alpha Helix (BSA [6]; 25 mM component): 0.36 | Regular Beta Sheet (BSA [6]; 25 mM component): 0.015 | Turns (BSA [6]; 25 mM component): 0.136 | Unordered (BSA [6]; 25 mM component): 0.266 | Distorted Alpha Helix (BSA [6]; 55 mM component): 0.150 | Distorted Beta Sheet (BSA [6]; 55 mM component): 0.055 | Regular Alpha Helix (BSA [6]; 55 mM component): 0.242 | Regular Beta Sheet (BSA [6]; 55 mM component): 0.080 | Turns (BSA [6]; 55 mM component): 0.153 | Unordered (BSA [6]; 55 mM component): 0.320 | Distorted Alpha Helix (BSA [6]; 90 mM component): 0.171 | Distorted Beta Sheet (BSA [6]; 90 mM component): 0.044 | Regular Alpha Helix (BSA [6]; 90 mM component): 0.294 | Regular Beta Sheet (BSA [6]; 90 mM component): 0.057 | Turns (BSA [6]; 90 mM component): 0.145 | Unordered (BSA [6]; 90 mM component): 0.289 | Distorted Alpha Helix (BSA [6]; 120 mM component): 0.207 | Distorted Beta Sheet (BSA [6]; 120 mM component): 0.029 | Regular Alpha Helix (BSA [6]; 120 mM component): 0.396 | Regular Beta Sheet (BSA [6]; 120 mM component): 0.018 | Turns (BSA [6]; 120 mM component): 0.141 | Unordered (BSA [6]; 120 mM component): 0.208 | Distorted Alpha Helix (BSA [6]; 200 mM component): 0.202 | Distorted Beta Sheet (BSA [6]; 200 mM component): 0.032 | Regular Alpha Helix (BSA [6]; 200 mM component): 0.386 | Regular Beta Sheet (BSA [6]; 200 mM component): 0.021 | Turns (BSA [6]; 200 mM component): 0.146 | Unordered (BSA [6]; 200 mM component): 0.212
